Reference: patent US20210300936A1, “PYRAZOLOTRIAZOLOPYRIMIDINE DERIVATIVES AS A2A RECEPTOR ANTAGONIST” (BEIGENE, LTD., priority 2018, published 2021)

Biological target: human A2A receptor (A2AR) (Homo sapiens, UniProt P29274)
Test: Luciferase reporter assay (HEK293-A2AR-luc2p/CRE/Hygro cells, 3 nM CGS21680)
Type: cell-based
Details: 3 nM CGS21680, 5 h incubation
Procedure, shortened: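 HEK293 cells stably expressing A2AR with a CRE-luc2P reporter were seeded in 1% FBS with 1 U/mL adenosine deaminase. After 18 h, cells got 3 nM CGS21680 plus antagonist at 0.1–10000 nM for 5 h, followed by a luciferase readout. IC50 is relative to the 3 nM CGS21680 signal, set as 100%.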

Sequence of human A2A receptor (A2AR) (P29274 whole entry): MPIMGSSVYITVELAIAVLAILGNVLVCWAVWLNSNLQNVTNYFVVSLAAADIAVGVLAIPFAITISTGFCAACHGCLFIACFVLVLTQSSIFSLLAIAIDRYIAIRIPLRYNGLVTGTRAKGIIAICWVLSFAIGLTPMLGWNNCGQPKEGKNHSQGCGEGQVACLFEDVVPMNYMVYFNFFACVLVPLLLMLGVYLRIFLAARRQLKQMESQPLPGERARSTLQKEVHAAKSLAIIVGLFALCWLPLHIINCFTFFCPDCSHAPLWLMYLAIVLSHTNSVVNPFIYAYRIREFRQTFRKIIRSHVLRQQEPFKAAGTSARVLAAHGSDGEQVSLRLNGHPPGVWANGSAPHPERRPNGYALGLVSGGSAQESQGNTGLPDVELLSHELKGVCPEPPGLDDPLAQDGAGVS

IC50 [nM] | SMILES
3.4 | Nc1nc2c(cnn2C(C(=O)N2CCc3cccnc3C2)c2ccccc2)c2nc(-c3ccco3)nn12 (stereo not drawn) [Compound B9, 2-(5-amino-2-(furan-2-yl)-7H-pyrazolo[4,3-e][1,2,4]triazolo[1,5-c]pyrimidin-7-yl)-1-(5,8-dihydro-1,7-naphthyridin-7(6H)-yl)-2-phenylethan-1-one]
3.4 | CC(C(=O)N1CCN(c2ccccc2F)CC1)(c1ccccc1)n1ncc2c1nc(N)n1nc(-c3ccco3)nc21 (stereo not drawn) [Compound A69, 2-(5-amino-2-(furan-2-yl)-7H-pyrazolo[4,3-e][1,2,4]triazolo[1,5-c]pyrimidin-7-yl)-1-(4-(2-fluorophenyl)piperazin-1-yl)-2-phenylpropan-1-one]
4.2 | COc1cccc(N2CCN(C(=O)C(C)(c3ccccc3)n3ncc4c3nc(N)n3nc(-c5ccco5)nc43)CC2)c1 (stereo not drawn) [Compound A77, 2-(5-amino-2-(furan-2-yl)-7H-pyrazolo[4,3-e][1,2,4]triazolo[1,5-c]pyrimidin-7-yl)-1-(4-(3-methoxyphenyl)piperazin-1-yl)-2-phenylpropan-1-one]
33.5 | CO[C@H]1CCCN(C(=O)C(C)(c2ccccc2)n2ncc3c2nc(N)n2nc(-c4ccco4)nc32)C1 (stereo partly drawn) [Compound B28, 2-(5-amino-2-(furan-2-yl)-7H-pyrazolo[4,3-e][1,2,4]triazolo[1,5-c]pyrimidin-7-yl)-1-((S)-3-methoxypiperidin-1-yl)-2-phenylpropan-1-one]
6.8 | COCCOc1ccc(N2CCN(C(=O)C(C)(c3cccc(F)c3)n3ncc4c3nc(N)n3nc(-c5ccco5)nc43)CC2)cc1 (stereo not drawn) [Compound A86, 2-(5-amino-2-(furan-2-yl)-7H-pyrazolo[4,3-e][1,2,4]triazolo[1,5-c]pyrimidin-7-yl)-2-(3-fluorophenyl)-1-(4-(4-(2-methoxyethoxy)phenyl)piperazin-1-yl)propan-1-one]
362 | COCCOc1ccc(N2CCN(C(=O)C(C)(C)n3ncc4c3nc(N)n3nc(-c5ccco5)nc43)CC2)cc1 [Compound A3, 2-(5-amino-2-(furan-2-yl)-7H-pyrazolo[4,3-e][1,2,4]triazolo[1,5-c]pyrimidin-7-yl)-1-(4-(4-(2-methoxyethoxy)phenyl)piperazin-1-yl)-2-methylpropan-1-one]
0.5 | Nc1nc2c(cnn2C(C(=O)N2CCc3cc(F)ccc3C2)c2ccccc2)c2nc(-c3ccco3)nn12 (single isomer, unassigned) [Compound B7b]
0.9 | COCCOc1ccc(N2CCN(C(=O)C(c3ccccc3)n3ncc4c3nc(N)n3nc(-c5ccco5)nc43)CC2C)cc1 (single isomer, unassigned) [Compound A46b]
243 | CCC(C(=O)N1CCN(c2ccc(OCCOCCOC)cc2)CC1)n1cc2c(nc(N)n3nc(-c4ccco4)nc23)n1 (stereo not drawn) [Compound C8, 2-(5-amino-2-(furan-2-yl)-8H-pyrazolo[4,3-e][1,2,4]triazolo[1,5-c]pyrimidin-8-yl)-1-(4-(4-(2-(2-methoxyethoxy)ethoxy)phenyl)piperazin-1-yl)butan-1-one]
6.3 | CCCCC(C(=O)N1CCN(c2ccc(OCCOC)cc2)CC1)n1ncc2c1nc(N)n1nc(-c3ccco3)nc21 (stereo not drawn) [Compound A10, 2-(5-amino-2-(furan-2-yl)-7H-pyrazolo[4,3-e][1,2,4]triazolo[1,5-c]pyrimidin-7-yl)-1-(4-(4-(2-methoxyethoxy)phenyl)piperazin-1-yl)hexan-1-one]
5.8 | COCCOc1ccc(N2CCN(C(=O)C(c3cccc(OC)c3)n3ncc4c3nc(N)n3nc(-c5ccco5)nc43)CC2)cc1 (stereo not drawn) [Compound A41, 2-(5-amino-2-(furan-2-yl)-7H-pyrazolo[4,3-e][1,2,4]triazolo[1,5-c]pyrimidin-7-yl)-1-(4-(4-(2-methoxyethoxy)phenyl)piperazin-1-yl)-2-(3-methoxyphenyl)ethan-1-one]
3.3 | CC(C(=O)N1CCN(c2cccc(C(=O)NCC3(O)COC3)c2)CC1)(c1ccccc1)n1ncc2c1nc(N)n1nc(-c3ccco3)nc21 (stereo not drawn) [Compound A91, 3-(4-(2-(5-amino-2-(furan-2-yl)-7H-pyrazolo[4,3-e][1,2,4]triazolo[1,5-c]pyrimidin-7-yl)-2-phenylpropanoyl)piperazin-1-yl)-N-((3-hydroxyoxetan-3-yl)methyl)benzamide]
9.5 | COCCOc1ccc(N2CCN(C(=O)C(c3ccccc3)n3cc4c(nc(N)n5nc(-c6ccco6)nc45)n3)CC2)cc1 (stereo not drawn) [Compound C14, 2-(5-amino-2-(furan-2-yl)-8H-pyrazolo[4,3-e][1,2,4]triazolo[1,5-c]pyrimidin-8-yl)-1-(4-(4-(2-methoxyethoxy)phenyl)piperazin-1-yl)-2-phenylethan-1-one]
2.9 | COCCOc1ccc(N2CCN(C(=O)C(c3ccccc3)n3ncc4c3nc(N)n3nc(-c5ccco5)nc43)C[C@@H]2C)cc1 (stereo partly drawn) [Compound A46, 2-(5-amino-2-(furan-2-yl)-7H-pyrazolo[4,3-e][1,2,4]triazolo[1,5-c]pyrimidin-7-yl)-1-((S)-4-(4-(2-methoxyethoxy)phenyl)-3-methylpiperazin-1-yl)-2-phenylethan-1-one]
6.9 | CCCCC(C(=O)N1CCN(c2ccc(OCCOCCOC)cc2)CC1)n1ncc2c1nc(N)n1nc(-c3ccco3)nc21 (stereo not drawn) [Compound A11, 2-(5-amino-2-(furan-2-yl)-7H-pyrazolo[4,3-e][1,2,4]triazolo[1,5-c]pyrimidin-7-yl)-1-(4-(4-(2-(2-methoxyethoxy)ethoxy)phenyl)piperazin-1-yl)hexan-1-one]
2 | COCCOc1ccc(N2CCN(C(=O)C(c3ccccc3)n3ncc4c3nc(N)n3nc(-c5ccco5)nc43)CC2)c(F)c1 (stereo not drawn) [Compound A44, 2-(5-amino-2-(furan-2-yl)-7H-pyrazolo[4,3-e][1,2,4]triazolo[1,5-c]pyrimidin-7-yl)-1-(4-(2-fluoro-4-(2-methoxyethoxy)phenyl)piperazin-1-yl)-2-phenylethan-1-one]
1.9 | Nc1nc2c(cnn2C(C(=O)N2CCc3ccccc3C2)c2ccccc2)c2nc(-c3ccco3)nn12 (stereo not drawn) [Compound B3, 2-(5-amino-2-(furan-2-yl)-7H-pyrazolo[4,3-e][1,2,4]triazolo[1,5-c]pyrimidin-7-yl)-1-(3,4-dihydroisoquinolin-2(1H)-yl)-2-phenylethan-1-one]
1.5 | COCCOc1ccc(N2CCN(C(=O)C(c3ccccc3)n3ncc4c3nc(N)n3nc(-c5ccco5)nc43)[C@H](C)C2)cc1 (stereo partly drawn) [Compound A50, 2-(5-amino-2-(furan-2-yl)-7H-pyrazolo[4,3-e][1,2,4]triazolo[1,5-c]pyrimidin-7-yl)-1-((R)-4-(4-(2-methoxyethoxy)phenyl)-2-methylpiperazin-1-yl)-2-phenylethan-1-one]
9.5 | CCCC(C(=O)N1CCN(c2ccc(OCCOCCOC)cc2)CC1)n1ncc2c1nc(N)n1nc(-c3ccco3)nc21 (stereo not drawn) [Compound A6, 2-(5-amino-2-(furan-2-yl)-7H-pyrazolo[4,3-e][1,2,4]triazolo[1,5-c]pyrimidin-7-yl)-1-(4-(4-(2-(2-methoxyethoxy)ethoxy)phenyl)piperazin-1-yl)pentan-1-one]
6.5 | COCCOc1ccc(N2CCN(C(=O)C(C)(c3ccccc3)n3ncc4c3nc(N)n3nc(-c5ccco5)nc43)CC2)cc1F (stereo not drawn) [Compound A66, 2-(5-amino-2-(furan-2-yl)-7H-pyrazolo[4,3-e][1,2,4]triazolo[1,5-c]pyrimidin-7-yl)-1-(4-(3-fluoro-4-(2-methoxyethoxy)phenyl)piperazin-1-yl)-2-phenylpropan-1-one]
2.8 | Nc1nc2c(cnn2C(C(=O)N2CCc3ncccc3C2)c2ccccc2)c2nc(-c3ccco3)nn12 (stereo not drawn) [Compound B13, 2-(5-amino-2-(furan-2-yl)-7H-pyrazolo[4,3-e][1,2,4]triazolo[1,5-c]pyrimidin-7-yl)-1-(7,8-dihydro-1,6-naphthyridin-6(5H)-yl)-2-phenylethan-1-one]
5.3 | COCCOc1cc(F)c(N2CCN(C(=O)C(c3ccccc3)n3ncc4c3nc(N)n3nc(-c5ccco5)nc43)CC2)cc1F (stereo not drawn) [Compound A57, 2-(5-amino-2-(furan-2-yl)-7H-pyrazolo[4,3-e][1,2,4]triazolo[1,5-c]pyrimidin-7-yl)-1-(4-(2,5-difluoro-4-(2-methoxyethoxy)phenyl)piperazin-1-yl)-2-phenylethan-1-one]
5.5 | CN(C)C(=O)c1ccc(N2CCN(C(=O)C(C)(c3ccccc3)n3ncc4c3nc(N)n3nc(-c5ccco5)nc43)CC2)cc1 (stereo not drawn) [Compound A104, 4-(4-(2-(5-amino-2-(furan-2-yl)-7H-pyrazolo[4,3-e][1,2,4]triazolo[1,5-c]pyrimidin-7-yl)-2-phenylpropanoyl)piperazin-1-yl)-N,N-dimethylbenzamide]
97.3 | CO[C@@H]1CCN(C(=O)C(C)(c2ccccc2)n2ncc3c2nc(N)n2nc(-c4ccco4)nc32)C1 (stereo partly drawn) [Compound B30, 2-(5-amino-2-(furan-2-yl)-7H-pyrazolo[4,3-e][1,2,4]triazolo[1,5-c]pyrimidin-7-yl)-1-((R)-3-methoxypyrrolidin-1-yl)-2-phenylpropan-1-one]
0.6 | COCCOc1ccc(N2CCN(C(=O)C(C)(c3ccccc3OC)n3ncc4c3nc(N)n3nc(-c5ccco5)nc43)CC2)cc1 (stereo not drawn) [Compound A93, 2-(5-amino-2-(furan-2-yl)-7H-pyrazolo[4,3-e][1,2,4]triazolo[1,5-c]pyrimidin-7-yl)-1-(4-(4-(2-methoxyethoxy)phenyl)piperazin-1-yl)-2-(2-methoxyphenyl)propan-1-one]
4.3 | CCCC(C(=O)N1CCN(c2ccc(F)cc2F)CC1)n1ncc2c1nc(N)n1nc(-c3ccco3)nc21 (stereo not drawn) [Compound A20, 2-(5-amino-2-(furan-2-yl)-7H-pyrazolo[4,3-e][1,2,4]triazolo[1,5-c]pyrimidin-7-yl)-1-(4-(2,4-difluorophenyl)piperazin-1-yl)pentan-1-one]
337 | COCCOCCOc1ccc(N2CCN(C(=O)C(C(C)C)n3cc4c(nc(N)n5nc(-c6ccco6)nc45)n3)CC2)cc1 (stereo not drawn) [Compound C12, 2-(5-amino-2-(furan-2-yl)-8H-pyrazolo[4,3-e][1,2,4]triazolo[1,5-c]pyrimidin-8-yl)-1-(4-(4-(2-(2-methoxyethoxy)ethoxy)phenyl)piperazin-1-yl)-3-methylbutan-1-one]
